{"source": "patent US5447911A", "about": "“Ghilanten antimetastatic principle from the south american leech, Haementeria ghilianii” (Merrell Dow Pharmaceuticals Inc., priority 1994, dated 1995)", "system": "B16 melanoma F10 cells", "assay": "Metastatic spread of B16-F10 melanoma cells to the lungs of C57/BL mice", "type": "in vivo", "experimental": "To confirm the anti-metastatic activity of the proteinaceous substances of this invention, 1×10^5 viable B16 melanoma F10 line cells were injected i.v. through the tail vein of C57/BL mice. The antimetastatic factor was then administered i.v. at -2, +2, +4 and +6 hours relative to the tumor innoculum at t=0 hours. At the end of 15 days, the animals were sacrificed and the number of metastatic foci in the lungs were quantitated. The results observed are summarized in Table 1 below, with n indicating the number of animals used in the test.\nB16 melanoma F10 cells (1 × 10^5 cells/animal) were injected i.v.\ninto the tail vein of C57/Bl mice on day 0. Vehicle: 10 mM Hepes, 0.15M\nNaCl, pH 7.4 containing 10 mg/ml BSA; recombinantHirudin (25 antithrombin\nunits) and FXa inhibitor (1-2 μg) were injected into the mice i.v. at\n-2, +2, +4, +6 hrs. after tumor cell innoculation. The animals were\nsacrificed at 14 days post tumor cell innoculation. The lungs were\ndissected, fixed, and the number of pulmonary metas tases were determined\nunder a dissecting microscope. […]", "key": {"[1]": {"conditions": "Table 1, recombinant hirudin 25 antithrombin units or FXa inhibitor 1-2 μg i.v. at -2, +2, +4, +6 hrs, versus vehicle control"}}, "data": [{"substance": "Hirudin", "values": [{"measurement": "No. of Metastatic Foci (Mean + S.E.; n = 6)", "setting": "Table 1, lungs, recombinant hirudin 25 antithrombin units or FXa inhibitor 1-2 μg i.v. at -2, +2, +4, +6 hrs, 14 days post innoculation", "result": "198 ± 10"}, {"measurement": "% Inhibition (metastatic foci)", "setting": "[1]", "result": 0, "unit": "%"}, {"measurement": "% Potentiation (metastatic foci)", "setting": "[1]", "result": 21, "unit": "%"}, {"measurement": "Effect on metastasis (in words)", "setting": "administered -2, +2, +4 and +6 hours relative to tumor cell innoculation", "result": "caused a moderate increase in metastatic foci"}]}]}
